Measured values: patent publication US7563445B2, “CD40 binding molecules and CTL peptides for treating tumors” (priority 1998, dated 2009)

How the values were obtained:
E1A-specific CTL clone = experiment: Spleen cells of peptide-injected mice as stimulator cells for an E1A-specific CTL clone ([3H]-thymidine incorporation); type: cell-based, C57BL/6 mice; conditions: splenocytes isolated 16 h after s.c. injection of 100 μg peptide in IFA
Description: Spleen cells derived from untreated C57BL/6 mice (−), or from mice injected s.c. 16 h earlier with 100 μg of E1A- or HPV16 E7-peptide in IFA were used as stimulator cells for an E1A-specific CTL clone. [^3H]-thymidine incorporation (cpm) +/−S. E. M. is shown for different effector to stimulator concentrations,. without subtraction of background counts. Results are representative of 5 independent experiments.
Spleen cells from these mice were isolated 16h later and used as stimulator cells for an E1A-specific CTL clone in vitro.

[1] = tested on: HPV16 transformed syngeneic cells (TC-1); experiment: Therapy of HPV16 E6/E7 transformed tumor cells (TC-1) by peptide plus in vivo CD40 triggering; set-up: species or system C57BL/6 mice; conditions: treated 6 days after s.c. injection of 25.000 TC-1 cells; 100 μg peptide i.p. in IFA; n=10
Description: Mice were injected s.c with 25.000 HPV16 transformed syngeneic cells (TC-1). C57BL/6 mice were left untreated (-◯-) or after 6 days received 100 μg HPV16 E7-peptide i.p. in IFA (-□-), 100 μg HPV16 E7-peptide i.p. in IFA in combination with the anti-CD40 mAb FGK-45 (-▪-) or a control peptide i.p. in IFA in combination with the anti-CD40 mAb FGK-45 (-●-). The percentage of tumor bearing mice is depicted for different treatment groups (n=10) in (a). The differences between the group treated with the HPV16-peptide plus the anti-CD40 mAb and the other three groups were statistically significant (p<0.01) (Log-Rank test). In (b) the percentage of surviving animals is shown (E7-peptide-treated group vs E7-peptide plus anti-CD40-treated group: p=0.002, Log-Rank test).
It was examined whether CD40-triggering in vivo is beneficial to the outcome of vaccination with an HPV16 E7-derived peptide.

[2] = tested on: HPV16 transformed syngeneic cells (TC-1); conditions: preventive vaccination with peptide, prior knowledge; cited from earlier work
CD40 = biological target: T1, CD40 (Mus musculus, UniProt P27512); experiment: Cross-priming of E1B-specific CTLs in mice immunized with Ad5E1-BALB/c MECs, CD40 activation replacing CD4+ T help; type: in vivo; conditions: CD4-depleted mice after immunization; LPS 50 μg intravenous; IL-2 1×10^5 units in IFA subcutaneous (not shown)
T1 construct: endogenous in cells
T1 sequence (P27512 20-289): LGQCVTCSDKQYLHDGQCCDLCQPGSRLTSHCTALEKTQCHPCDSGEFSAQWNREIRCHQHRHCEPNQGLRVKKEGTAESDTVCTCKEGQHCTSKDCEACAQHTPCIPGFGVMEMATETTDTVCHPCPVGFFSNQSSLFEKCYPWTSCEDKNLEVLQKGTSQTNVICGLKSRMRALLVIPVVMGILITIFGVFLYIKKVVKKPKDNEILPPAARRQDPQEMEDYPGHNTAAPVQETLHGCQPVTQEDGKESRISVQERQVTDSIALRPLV
Source text: (§1) Each line represents one mouse.
as §1

E1A-specific CTL = experiment: E1A-peptide in IFA with in vivo CD40-triggering: E1A-specific CTL cytotoxicity and Db/E1A tetramer staining; set-up: species or system C57BL/6 mice; conditions: spleen of vaccinated mice
Source text: Since CD4^+ T cell-mediated helper activity has been implicated in the prevention of peripheral CTL tolerance induction, the inventors addressed the question whether CD40-triggering in vivo is sufficient to prevent peripheral E1A-specific CTL tolerization.

Row | Substance | Proliferation of E1A-specific CTL clone on splenocytes (E1A-specific CTL clone) | Tumor growth / outgrowth [1] | Immunity against a challenge with HPV16-transformed tumor cells [2] | E1B-specific CTL activity / CTL priming (CD40) | Percentage of CD8+ cells that stained with the Db/E1A tetramers (E1A-specific CTL)
1 | RAHYNIVTF (Human Papilloma Virus Type 16 E7 derived peptide) [E7-peptide] | failed to do so | able to slow down tumor growth, but eventually most animals succumb to the tumor | induces protective CTL-mediated immunity | – | –
2 | bacterial lipopolysaccharide [LPS] | – | – | – | neither LPS or IL-2 treatment resulted in detectable CTL priming | –
3 | SGPSNTPPEI (Human Adenovirus E1A derived peptide) [E1A-peptide] | induced specific proliferation | – | – | – | approximately 3%
